Legend:
[1] = biological target: T1, P2X purinoceptor 7 (Homo sapiens) (UniProt Q99572); experiment: Antagonist activity at P2X7 receptor expressed in human THP1 cells assessed as reduction of benzoylbenzoyl adenosine triphosphate-induced pore formation at 10 uM relative to control; type: functional, cell-based; parameters: scale not given: the % may be the effect or the level left; details: THP-1
T1 sequence (whole entry): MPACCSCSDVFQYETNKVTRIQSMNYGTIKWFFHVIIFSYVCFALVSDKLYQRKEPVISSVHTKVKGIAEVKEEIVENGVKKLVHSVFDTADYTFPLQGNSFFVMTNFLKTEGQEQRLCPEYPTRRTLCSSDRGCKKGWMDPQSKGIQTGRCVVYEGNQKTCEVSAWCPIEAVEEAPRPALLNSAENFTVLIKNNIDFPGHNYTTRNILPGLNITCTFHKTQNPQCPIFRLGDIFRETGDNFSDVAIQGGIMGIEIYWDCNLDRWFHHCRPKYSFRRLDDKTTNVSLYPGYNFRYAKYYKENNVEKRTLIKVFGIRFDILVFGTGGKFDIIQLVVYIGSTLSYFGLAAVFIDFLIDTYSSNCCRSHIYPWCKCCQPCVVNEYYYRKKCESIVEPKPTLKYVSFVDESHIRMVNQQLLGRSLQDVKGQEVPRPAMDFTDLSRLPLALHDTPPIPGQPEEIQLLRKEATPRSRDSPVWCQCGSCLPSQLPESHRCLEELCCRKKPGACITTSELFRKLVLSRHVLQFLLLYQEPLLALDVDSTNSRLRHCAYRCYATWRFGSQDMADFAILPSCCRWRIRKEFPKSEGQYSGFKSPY

THP-1 [2] = experiment: Cytotoxicity against human THP1 cells at 30 uM; type: functional
THP-1 [3] = experiment: Cytotoxicity against human THP1 cells at 100 uM; type: functional
THP-1 [4] = experiment: Cytotoxicity against human THP1 cells after 21 hrs; type: functional, cell-based; details: THP-1, 21 h
THP-1 [5] = experiment: Increase in hemolysin-induced pore formation in human THP1 cells at 10 uM relative to control; type: functional
THP-1 [6] = experiment: Increase in hemolysin-induced pore formation in human THP1 cells at 100 uM relative to control; type: functional

C(=C/CCCC[n+]1cccc(C/C=C\CCCCCCc2cccnc2)c1)/CCCCCCc1cccnc1 [NIPHATOXIN C]
Activity [1]: 41%
Activity (THP-1 [2]): 0%
Activity (THP-1 [3]): 99%
IC50 (THP-1 [4]): 11.5 µM
Activity (THP-1 [5]): 101%
Activity (THP-1 [6]): 185%
